Results reported in patent US5674979A, “Agent for inhibiting symmetrical proteins, in particular enzymes” (priority 1989, dated 1997).
Read-outs that look alike come from different tables or passages of the source.

How the values were obtained:
HIV-1 [1] = conditions: H9 cells
Method: Compounds (a), (b), (c), (d) were tested in the molarity range from 0.1 μM to 1000 μM. Infectivity tests were carried out as follows: an HIV-1 suspension containing 10^2 infectious units was absorbed on to 5×10^6 H9 cells in a volume of 1 ml for 2 hours at 4° C. After this time, 9 ml of tissue culture medium with the required inhibitor concentration was added. The medium was exchanged with fresh medium plus inhibitor daily. Two control cultures were also prepared, one without inhibitor to determine the normal virus replication rate, the other containing inhibitor but no virus, to determine whether the substances were cytotoxic for H9 cells. […] The amount of virus antigen produced by the infected cells was measured daily using Elisa for eight days, indicating the amount of HIV-1 antigen in the tissue culture medium. After this, the cells were pelleted, washed in medium without inhibitor, and further incubated in inhibitor-less medium. The antigen production was measured on days 9 and 12 (ie 1 and […] after removal of the inhibitor). Virus production was also measured on days 7, 8, 9, and 12 by determining the amount of reverse transcriptase in the supernatant of the cell medium.

HIV-1 [2] = tested on: HIV-1
Method: Infectivity tests were carried out as follows: an HIV-1 suspension containing 10^2 infectious units was absorbed on to 5×10^6 H9 cells in a volume of 1 ml for 2 hours at 4° C. After this time, 9 ml of tissue culture medium with the required inhibitor concentration was added. The medium was exchanged with fresh medium plus inhibitor daily. Two control cultures were also prepared, one without inhibitor to determine the normal virus replication rate, the other containing inhibitor but no virus, to determine whether the substances were cytotoxic for H9 cells. […] The amount of virus antigen produced by the infected cells was measured daily using Elisa for eight days, indicating the amount of HIV-1 antigen in the tissue culture medium. After this, the cells were pelleted, washed in medium without inhibitor, and further incubated in inhibitor-less medium. The antigen production was measured on days 9 and 12 (ie 1 and 3 days after removal of the inhibitor). Virus production was also measured on days 7, 8, 9, and 12 by determining the amount of reverse transcriptase in the supernatant of the cell medium.

[3] = 0,1 μM, day 9 post infection, no inhibitor (after removal)
[4] = 0,1 μM, day 12 post infection, no inhibitor (after removal)
[5] = 1 μM, day 9 post infection, no inhibitor (after removal)
[6] = 1 μM, day 12 post infection, no inhibitor (after removal)
[7] = 10 μM, day 9 post infection, no inhibitor (after removal)
[8] = 10 μM, day 12 post infection, no inhibitor (after removal)
[9] = 100 μM, day 9 post infection, no inhibitor (after removal)
[10] = 100 μM, day 12 post infection, no inhibitor (after removal)
[11] = 1000 μM, day 9 post infection, no inhibitor (after removal)
[12] = 1000 μM, day 12 post infection, no inhibitor (after removal)

## CC(C)C[C@H](NC(=O)OC(C)(C)C)C(=O)NCC(O)CC(=O)O (stereo partly drawn) [B, t-BOC-L-Leu-NH--CH2 --CHOH--CH2 --COOH]
HIV-1 [1]; 0,1 μM, day 1 post infection
  HIV-1 antigen production as measured in antigen capture ELISA: 0,061 o. D.
HIV-1 [1]; 0,1 μM, day 2 post infection
  HIV-1 antigen production as measured in antigen capture ELISA: 0,063 o. D.
HIV-1 [1]; 0,1 μM, day 3 post infection
  HIV-1 antigen production as measured in antigen capture ELISA: 0,039 o. D.
HIV-1 [1]; 0,1 μM, day 4 post infection
  HIV-1 antigen production as measured in antigen capture ELISA: 0,063 o. D.
HIV-1 [1]; 0,1 μM, day 5 post infection
  HIV-1 antigen production as measured in antigen capture ELISA: 0,055 o. D.
HIV-1 [1]; 0,1 μM, day 6 post infection
  HIV-1 antigen production as measured in antigen capture ELISA: 0,149 o. D.
HIV-1 [1]; 0,1 μM, day 7 post infection
  HIV-1 antigen production as measured in antigen capture ELISA: 0,389 o. D.
HIV-1 [1]; 0,1 μM, day 8 post infection
  HIV-1 antigen production as measured in antigen capture ELISA: 0,232 o. D.
HIV-1 [1]; [3]
  HIV-1 antigen production as measured in antigen capture ELISA: 0,700 o. D.
HIV-1 [1]; [4]
  HIV-1 antigen production as measured in antigen capture ELISA: 1,047 o. D.
HIV-1 [1]; 1 μM, day 1 post infection
  HIV-1 antigen production as measured in antigen capture ELISA: 0,063 o. D.
HIV-1 [1]; 1 μM, day 2 post infection
  HIV-1 antigen production as measured in antigen capture ELISA: 0,060 o. D.
HIV-1 [1]; 1 μM, day 3 post infection
  HIV-1 antigen production as measured in antigen capture ELISA: 0,061 o. D.
HIV-1 [1]; 1 μM, day 4 post infection
  HIV-1 antigen production as measured in antigen capture ELISA: 0,050 o. D.
HIV-1 [1]; 1 μM, day 5 post infection
  HIV-1 antigen production as measured in antigen capture ELISA: 0,052 o. D.
HIV-1 [1]; 1 μM, day 6 post infection
  HIV-1 antigen production as measured in antigen capture ELISA: 0,105 o. D.
HIV-1 [1]; 1 μM, day 7 post infection
  HIV-1 antigen production as measured in antigen capture ELISA: 0,186 o. D.
HIV-1 [1]; 1 μM, day 8 post infection
  HIV-1 antigen production as measured in antigen capture ELISA: 0,237 o. D.
HIV-1 [1]; [5]
  HIV-1 antigen production as measured in antigen capture ELISA: 0,745 o. D.
HIV-1 [1]; [6]
  HIV-1 antigen production as measured in antigen capture ELISA: 0,970 o. D.
HIV-1 [1]; 10 μM, day 1 post infection
  HIV-1 antigen production as measured in antigen capture ELISA: 0,063 o. D.
HIV-1 [1]; 10 μM, day 2 post infection
  HIV-1 antigen production as measured in antigen capture ELISA: 0,060 o. D.
HIV-1 [1]; 10 μM, day 3 post infection
  HIV-1 antigen production as measured in antigen capture ELISA: 0,059 o. D.
HIV-1 [1]; 10 μM, day 4 post infection
  HIV-1 antigen production as measured in antigen capture ELISA: 0,047 o. D.
HIV-1 [1]; 10 μM, day 5 post infection
  HIV-1 antigen production as measured in antigen capture ELISA: 0,055 o. D.
HIV-1 [1]; 10 μM, day 6 post infection
  HIV-1 antigen production as measured in antigen capture ELISA: 0,087 o. D.
HIV-1 [1]; 10 μM, day 7 post infection
  HIV-1 antigen production as measured in antigen capture ELISA: 0,303 o. D.
HIV-1 [1]; 10 μM, day 8 post infection
  HIV-1 antigen production as measured in antigen capture ELISA: 0,342 o. D.
HIV-1 [1]; [7]
  HIV-1 antigen production as measured in antigen capture ELISA: 0,645 o. D.
HIV-1 [1]; [8]
  HIV-1 antigen production as measured in antigen capture ELISA: 1,038 o. D.
HIV-1 [1]; 100 μM, day 1 post infection
  HIV-1 antigen production as measured in antigen capture ELISA: 0,068 o. D.
HIV-1 [1]; 100 μM, day 2 post infection
  HIV-1 antigen production as measured in antigen capture ELISA: 0,070 o. D.
HIV-1 [1]; 100 μM, day 3 post infection
  HIV-1 antigen production as measured in antigen capture ELISA: 0,063 o. D.
HIV-1 [1]; 100 μM, day 4 post infection
  HIV-1 antigen production as measured in antigen capture ELISA: 0,052 o. D.
HIV-1 [1]; 100 μM, day 5 post infection
  HIV-1 antigen production as measured in antigen capture ELISA: 0,052 o. D.
HIV-1 [1]; 100 μM, day 6 post infection
  HIV-1 antigen production as measured in antigen capture ELISA: 0,099 o. D.
HIV-1 [1]; 100 μM, day 7 post infection
  HIV-1 antigen production as measured in antigen capture ELISA: 0,359 o. D.
HIV-1 [1]; 100 μM, day 8 post infection
  HIV-1 antigen production as measured in antigen capture ELISA: 0,260 o. D.
HIV-1 [1]; [9]
  HIV-1 antigen production as measured in antigen capture ELISA: 0,890 o. D.
HIV-1 [1]; [10]
  HIV-1 antigen production as measured in antigen capture ELISA: 0,960 o. D.
HIV-1 [1]; 1000 μM, day 1 post infection
  HIV-1 antigen production as measured in antigen capture ELISA: 0,076 o. D.
HIV-1 [1]; 1000 μM, day 2 post infection
  HIV-1 antigen production as measured in antigen capture ELISA: 0,068 o. D.
HIV-1 [1]; 1000 μM, day 3 post infection
  HIV-1 antigen production as measured in antigen capture ELISA: 0,050 o. D.
HIV-1 [1]; 1000 μM, day 4 post infection
  HIV-1 antigen production as measured in antigen capture ELISA: 0,050 o. D.
HIV-1 [1]; 1000 μM, day 5 post infection
  HIV-1 antigen production as measured in antigen capture ELISA: 0,063 o. D.
HIV-1 [1]; 1000 μM, day 6 post infection
  HIV-1 antigen production as measured in antigen capture ELISA: 0,075 o. D.
HIV-1 [1]; 1000 μM, day 7 post infection
  HIV-1 antigen production as measured in antigen capture ELISA: 0,279 o. D.
HIV-1 [1]; 1000 μM, day 8 post infection
  HIV-1 antigen production as measured in antigen capture ELISA: 0,577 o. D.
HIV-1 [1]; [11]
  HIV-1 antigen production as measured in antigen capture ELISA: 0,811 o. D.
HIV-1 [1]; [12]
  HIV-1 antigen production as measured in antigen capture ELISA: 1,050 o. D.
HIV-1 [2]; 0,1 μM, day 7 post infection
  Reverse Transkriptase Determination: 2099 epm/ml
HIV-1 [2]; 0,1 μM, day 8 post infection
  Reverse Transkriptase Determination: 3091 epm/ml
HIV-1 [2]; [3]
  Reverse Transkriptase Determination: 6180 epm/ml
HIV-1 [2]; [4]
  Reverse Transkriptase Determination: 106830 epm/ml
HIV-1 [2]; 1 μM, day 7 post infection
  Reverse Transkriptase Determination: 6105 epm/ml
HIV-1 [2]; 1 μM, day 8 post infection
  Reverse Transkriptase Determination: 3006 epm/ml
HIV-1 [2]; [5]
  Reverse Transkriptase Determination: 8474 epm/ml
HIV-1 [2]; [6]
  Reverse Transkriptase Determination: 92020 epm/ml
HIV-1 [2]; 10 μM, day 7 post infection
  Reverse Transkriptase Determination: 4614 epm/ml
HIV-1 [2]; 10 μM, day 8 post infection
  Reverse Transkriptase Determination: 4188 epm/ml
HIV-1 [2]; [7]
  Reverse Transkriptase Determination: 7187 epm/ml
HIV-1 [2]; [8]
  Reverse Transkriptase Determination: 164920 epm/ml
HIV-1 [2]; 100 μM, day 7 post infection
  Reverse Transkriptase Determination: 4033 epm/ml
HIV-1 [2]; 100 μM, day 8 post infection
  Reverse Transkriptase Determination: 4418 epm/ml
HIV-1 [2]; [9]
  Reverse Transkriptase Determination: 6575 epm/ml
HIV-1 [2]; [10]
  Reverse Transkriptase Determination: 125290 epm/ml
HIV-1 [2]; 1000 μM, day 7 post infection
  Reverse Transkriptase Determination: 3441 epm/ml
HIV-1 [2]; 1000 μM, day 8 post infection
  Reverse Transkriptase Determination: 3159 epm/ml
HIV-1 [2]; [11]
  Reverse Transkriptase Determination: 5503 epm/ml
HIV-1 [2]; [12]
  Reverse Transkriptase Determination: 149020 epm/ml
